Legend:
[1] = tested on: coaggregating pairs of oral isolates (early and late colonizers); experiment: reversal of coaggregation among fifteen oral isolates (overall); format: cell-based, bacterial strains of human gingival crevice origin
Protocol: (§1) Fifteen oral isolates, including both early colonizers (Streptococcus and Actinomyces) and late colonizers (Fusobacterium, Porphyromonas, Prevotella, Veillonella, Capnocytophaga, and Actinobacillus), were tested for their ability to coaggregate with each other, followed by testing for the reversal of coaggregation by the addition of D-tagatose. Bacterial strains used were of human gingival crevice origin. The coaggregation was examined visually by a scoring system ranging from 0 for no visible coaggregation to 4 for maximum coaggregation [Cisar J. O., Kolenbrander P. E., and McIntire F. C., “Specificity of coaggregation reactions between human oral streptococci and strains of Actinomyces viscosus or Actinomyces naeslundii”, Infect. Immun., 24:742–752. 1979]. D-Tagatose, at a concentration of less than 750 mM, completely reversed the coaggregation of 17 (60%) of 28 strong coaggregating pairs (with a coaggregation score of 2 or higher) tested. […] These D-tagatose sensitive coaggregations were D-galactose reversible as well.
(§2) Pairs of various species of oral bacteria were tested for coaggregation, and for reversal of coaggregation when D-tagatose or D-galactose was administered.

[2] = tested on: Prevotella loescheii PK1295/Streptococcus oralis C104; experiment: reversal of coaggregation, visual score; format: cell-based; design: key: *: Coaggregations were reversed by both D-galactose and D-tagatose
Protocol: as §1, §2

[3] = tested on: Prevotella loescheii PK1295/Streptococcus oralis SO34; experiment: reversal of coaggregation, visual score; format: cell-based; design: key: *: Coaggregations were reversed by both D-galactose and D-tagatose
Protocol: as §1, §2

[4] = tested on: Fusobacterium nucleatum PK1594/Capnocytophaga ochracea 25; experiment: reversal of coaggregation, visual score; format: cell-based; design: key: *: Coaggregations were reversed by both D-galactose and D-tagatose; conditions: pair PK1594/Capno 25; coaggregation score 1 without sugar
Protocol: as §1, §2

[5] = tested on: Actinomyces naeslundii PK29/Streptococcus oralis C104; experiment: reversal of coaggregation, visual score; format: cell-based; design: key to coaggregation score without sugar: *: Coaggregations were reversed by both D-galactose and D-tagatose; conditions: for coaggregation score without sugar: pair Cl04/PK29, coaggregation score 4 without sugar; for coaggregation score: pair PK29/C104, water score 4, scale 0 no visible to 4 maximum coaggregation
Protocol: as §1, §2

[6] = tested on: Streptococcus morbillorum PK509/Streptococcus oralis C104; experiment: reversal of coaggregation, visual score; format: cell-based; design: key to coaggregation score without sugar: *: Coaggregations were reversed by both D-galactose and D-tagatose; conditions: for coaggregation score without sugar: pair Cl04/PK509, coaggregation score 3 without sugar; for coaggregation score: pair PK509/C104, water score 3, scale 0 no visible to 4 maximum coaggregation
Protocol: as §1, §2

[7] = tested on: Veillonella atypica PK1910/Streptococcus oralis C104; experiment: reversal of coaggregation, visual score; format: cell-based; design: key to coaggregation score without sugar: *: Coaggregations were reversed by both D-galactose and D-tagatose; conditions: for coaggregation score without sugar: pair Cl04/PK1910, coaggregation score 3 without sugar; for coaggregation score: pair PK1910/C104, water score 3, scale 0 no visible to 4 maximum coaggregation
Protocol: as §1, §2

[8] = tested on: Fusobacterium nucleatum PK1594/Porphyromonas gingivalis PK1924; experiment: reversal of coaggregation, visual score; format: cell-based; design: key to coaggregation score without sugar: *: Coaggregations were reversed by both D-galactose and D-tagatose; conditions: pair PK1594/PK1924; for coaggregation score without sugar: coaggregation score 4 without sugar; for coaggregation score: water score 4, scale 0 no visible to 4 maximum coaggregation
Protocol: as §1, §2

[9] = tested on: Streptococcus morbillorum PK509/Veillonella atypica PK1910; experiment: reversal of coaggregation, visual score; format: cell-based; design: key to coaggregation score without sugar: *: Coaggregations were reversed by both D-galactose and D-tagatose; conditions: pair PK509/PK1910; for coaggregation score without sugar: coaggregation score 2 without sugar; for coaggregation score: water score 2, scale 0 no visible to 4 maximum coaggregation
Protocol: as §1, §2

[10] = tested on: Fusobacterium nucleatum PK1594/Actinobacillus actinomycetemcomitans JP2; experiment: reversal of coaggregation, visual score; format: cell-based; design: key to coaggregation score without sugar: *: Coaggregations were reversed by both D-galactose and D-tagatose; conditions: pair PK1594/JP2; for coaggregation score without sugar: coaggregation score 3 without sugar; for coaggregation score: water score 3, scale 0 no visible to 4 maximum coaggregation
Protocol: as §1, §2

[11] = tested on: Streptococcus morbillorum PK509/Streptococcus oralis SO34; experiment: reversal of coaggregation, visual score; format: cell-based; design: key to coaggregation score without sugar: *: Coaggregations were reversed by both D-galactose and D-tagatose; conditions: for coaggregation score: pair PK509/SO34, water score 2, scale 0 no visible to 4 maximum coaggregation; for coaggregation score without sugar: pair SO34/PK509, coaggregation score 2 without sugar
Protocol: as §1, §2

[12] = tested on: Actinomyces naeslundii PK29/Streptococcus oralis SO34; experiment: reversal of coaggregation, visual score; format: cell-based; design: key to coaggregation score without sugar: *: Coaggregations were reversed by both D-galactose and D-tagatose; conditions: for coaggregation score: pair PK29/SO34, water score 4, scale 0 no visible to 4 maximum coaggregation; for coaggregation score without sugar: pair SO34/PK29, coaggregation score 4 without sugar
Protocol: as §1, §2

[13] = tested on: Fusobacterium nucleatum PK1594/Veillonella atypica PK1910; experiment: reversal of coaggregation, visual score; format: cell-based; design: key to coaggregation score without sugar: *: Coaggregations were reversed by both D-galactose and D-tagatose; conditions: pair PK1594/PK1910; for coaggregation score without sugar: coaggregation score 3 without sugar; for coaggregation score: water score 3, scale 0 no visible to 4 maximum coaggregation
Protocol: as §1, §2

[14] = tested on: Veillonella atypica PK1910/Streptococcus oralis SO34; experiment: reversal of coaggregation, visual score; format: cell-based; design: key to coaggregation score without sugar: *: Coaggregations were reversed by both D-galactose and D-tagatose; conditions: for coaggregation score: pair PK1910/SO34, water score 3, scale 0 no visible to 4 maximum coaggregation; for coaggregation score without sugar: pair SO34/PK1910, coaggregation score 3 without sugar
Protocol: as §1, §2

[15] = tested on: Prevotella loescheii PK1295/Streptococcus mitis J22; experiment: reversal of coaggregation, visual score; format: cell-based; design: key to coaggregation score without sugar: *: Coaggregations were reversed by both D-galactose and D-tagatose; conditions: for coaggregation score without sugar: pair J22/PK1295, coaggregation score 3 without sugar; for coaggregation score: pair PK1295/J22, water score 4, scale 0 no visible to 4 maximum coaggregation
Protocol: as §1, §2

[16] = tested on: Streptococcus morbillorum PK509/Prevotella loescheii PK1295; experiment: reversal of coaggregation, visual score; format: cell-based; design: key to coaggregation score without sugar: *: Coaggregations were reversed by both D-galactose and D-tagatose; conditions: pair PK509/PK1295; for coaggregation score without sugar: coaggregation score 2 without sugar; for coaggregation score: water score 2, scale 0 no visible to 4 maximum coaggregation
Protocol: as §1, §2

[17] = tested on: F. nucleatum PK1594 and P. gingivalis PK1924; experiment: phase-contrast photomicrographs of coaggregation; format: cell-based, Fusobacterium nucleatum; Porphyromonas gingivalis
[18] = tested on: Actinomyces naeslundii PK947/Streptococcus mitis J22; experiment: reversal of coaggregation, visual score; format: cell-based; design: key to reversal of coaggregation: *: Coaggregations were reversed by both D-galactose and D-tagatose; conditions: for reversal of coaggregation: pair J22/PK947, coaggregation score 2 without sugar; for coaggregation score: pair PK947/J22, water score 2, scale 0 no visible to 4 maximum coaggregation
Protocol: as §1, §2

[19] = tested on: Actinomyces naeslundii PK947/Streptococcus oralis C104; experiment: reversal of coaggregation, visual score; format: cell-based; design: key to reversal of coaggregation: *: Coaggregations were reversed by both D-galactose and D-tagatose; conditions: for reversal of coaggregation: pair Cl04/PK947, coaggregation score 2 without sugar; for coaggregation score: pair PK947/C104, water score 2, scale 0 no visible to 4 maximum coaggregation
Protocol: as §1, §2

[20] = pair Cl04/PK1295, coaggregation score 4 without sugar
[21] = pair SO34/PK1295, coaggregation score 4 without sugar

In the case of `O=C[C@H](O)[C@@H](O)[C@@H](O)[C@H](O)CO` [D-Galactose], the “reversibility of the D-tagatose sensitive coaggregations” value [1] is reported as “reversible”, the coaggregation score [2, 20] is reported as 4* and the coaggregation score ([2]; pair PK1295/C104, sugar 143 mM, water score 4, scale 0 no visible to 4 maximum coaggregation) is reported as 1. The coaggregation score ([3]; pair PK1295/SO34, sugar 143 mM, water score 4, scale 0 no visible to 4 maximum coaggregation) was 0, the coaggregation score [3, 21] was 4* and the “coaggregation score without sugar” value [4] was 1*. For the same compound, the “coaggregation score without sugar” value [5] was 4*, the coaggregation score ([5]; sugar 143 mM) was 1 and the “coaggregation score without sugar” value [6] was 3*. For the same compound, the coaggregation score ([6]; sugar 143 mM) was 0, the “coaggregation score without sugar” value [7] was 3* and the coaggregation score ([7]; sugar 143 mM) was 0. The “coaggregation score without sugar” value [8] was 4*, the coaggregation score ([8]; sugar 143 mM) was 0 and the “coaggregation score without sugar” value [9] was 2*. The coaggregation score ([9]; sugar 143 mM) was 0, the “coaggregation score without sugar” value [10] was 3* and the coaggregation score ([10]; sugar 143 mM) was 1. The coaggregation score ([11]; sugar 143 mM) was 0, the “coaggregation score without sugar” value [11] was 2* and the coaggregation score ([12]; sugar 143 mM) was 1. For the same compound, the “coaggregation score without sugar” value [12] was 4*, the “coaggregation score without sugar” value [13] was 3* and the coaggregation score ([13]; sugar 143 mM) was 0. The coaggregation score ([14]; sugar 143 mM) was 1, the “coaggregation score without sugar” value [14] was 3* and the “coaggregation score without sugar” value [15] was 3*. For the same compound, the coaggregation score ([15]; sugar 143 mM) was 0, the “coaggregation score without sugar” value [16] was 2* and the coaggregation score ([16]; sugar 143 mM) was 0. The “dissociation of coaggregate clumps” value ([17]; 143 mM final concentration) was “dissociates clumps into individual cells”, the reversal of coaggregation [18] was 2* and the coaggregation score ([18]; sugar 143 mM) was 0. The reversal of coaggregation [19] was 2* and the coaggregation score ([19]; sugar 143 mM) was 0.

With `O=C(CO)[C@@H](O)[C@@H](O)[C@H](O)CO` [D-Tagatose] the “plaque reversibility, comparison of Table 2” value ([1]; D-tagatose and D-sorbitol at somewhat higher concentrations than D-galactose) was “virtually equal to that of D-galactose”, the “share of strong coaggregating pairs whose coaggregation was completely reversed” value ([1]; concentration of less than 750 mM, 28 strong coaggregating pairs tested) was 60% and the “number of strong coaggregating pairs whose coaggregation was completely reversed” value ([1]; concentration of less than 750 mM, of 28 strong coaggregating pairs (score of 2 or higher) tested) was 17. For the same compound, the colonizers acted on ([1]; late colonizers were gram-negative anaerobes) was “acted on both early colonizers and late colonizers”, the coaggregation score [2, 20] was 4* and the coaggregation score ([2]; pair PK1295/C104, sugar 750 mM, water score 4, scale 0 no visible to 4 maximum coaggregation) was 2. For the same compound, the coaggregation score ([3]; pair PK1295/SO34, sugar 750 mM, water score 4, scale 0 no visible to 4 maximum coaggregation) was 1, the coaggregation score [3, 21] was 4* and the “coaggregation score without sugar” value [4] was 1*. The “coaggregation score without sugar” value [5] was 4*, the coaggregation score ([5]; sugar 750 mM) was 1 and the “coaggregation score without sugar” value [6] was 3*. For the same compound, the coaggregation score ([6]; sugar 750 mM) was 1, the “coaggregation score without sugar” value [7] was 3* and the coaggregation score ([7]; sugar 200 mM) was 1. For the same compound, the “coaggregation score without sugar” value [8] was 4*, the coaggregation score ([8]; sugar 400 mM) was 0 and the “coaggregation score without sugar” value [9] was 2*. For the same compound, the coaggregation score ([9]; sugar 400 mM) was 0, the “coaggregation score without sugar” value [10] was 3* and the coaggregation score ([10]; sugar 600 mM) was 0. The coaggregation score ([11]; sugar 400 mM) was 1, the “coaggregation score without sugar” value [11] was 2* and the coaggregation score ([12]; sugar 750 mM) was 1. For the same compound, the “coaggregation score without sugar” value [12] was 4*, the “coaggregation score without sugar” value [13] was 3* and the coaggregation score ([13]; sugar 200 mM) was 0. For the same compound, the coaggregation score ([14]; sugar 200 mM) was 1, the “coaggregation score without sugar” value [14] was 3* and the “coaggregation score without sugar” value [15] was 3*. For the same compound, the coaggregation score ([15]; sugar 750 mM) was 2, the “coaggregation score without sugar” value [16] was 2* and the coaggregation score ([16]; sugar 600 mM) was 0. For the same compound, the “dissociation of coaggregate clumps” value ([17]; 400 mM final concentration) was “dissociates the clumps into individual cells”, the reversal of coaggregation [18] was 2* and the coaggregation score ([18]; sugar 200 mM) was 0. The reversal of coaggregation [19] was 2* and the coaggregation score ([19]; sugar 200 mM) was 0.

Reference: patent publication US7189351B2, “D-tagatose as an anti-biofilm agent” (priority 2001, dated 2007)
